One data set deals with S. cerevisiae cells. Put plainly: Accumulation of T-2307 in S. cerevisiae cells. It counts as cell-based, Saccharomyces cerevisiae.
The next data set concerns rat liver mitochondria. Also on record: method as in PMID 22948882. Particulars: cited from earlier work.
The test system of another data set is Saccharomyces cerevisiae. As to the kind of experiment: MIC determination, broth microdilution in semisynthetic medium. It counts as cell-based. On the procedure: MIC was determined using the broth microdilution method based on the Clinical and Laboratory Standards Institute method with the following minor modifications ([38]). The medium used for MIC determination was semisynthetic medium, which was used for the measurement of intracellular ATP levels as described above. […].
In general terms: In broth dilution the organism is exposed to a series of concentrations in liquid medium.

Data set [1] deals with respiratory chain complex I (Bos taurus, UniProt P03887+P17694+P42026). Put plainly: MitoCheck complex I activity assay, bovine heart mitochondria. It counts as biochemical. As to the method: The enzymatic activities of bovine heart mitochondrial respiratory chain complexes were determined using MitoCheck complex I, complex II/III, and complex IV activity assay kits (Cayman Chemical, Ann Arbor, MI, USA). Bovine heart mitochondria from these kits were used for experiments. The experiments were performed following the manufacturer’s instructions. In the experiments, 2 μM rotenone, 1 mM KCN, and both 1 mM TTFA and 5 μg/ml antimycin A served as positive controls for the inhibition of complex I, complex IV, and complexes II plus III, respectively.
In all experiments, the reaction rate of each enzyme was determined by calculating the slope of the linear portion of the curve. Complex I activity in C. albicans was calculated by subtracting the rotenone-insensitive enzymatic activity (with 10 μM rotenone) from the NADH dehydrogenase activity (without rotenone).
OCRs in isolated mitochondria and intracellular ATP levels were compared between the control and treatment groups using the parametric Dunnett’s multiple-comparison test. P values of <0.05 (comparison of multiple groups) were considered statistically significant. IC50 values were determined from dose-response curves compared with untreated control samples using a four-parameter logistic curve-fitting analysis. Data were analyzed using JMP 13.0 (SAS Institute Japan Ltd., Tokyo, Japan).

In data set [2] the target is respiratory chain complex IV (Saccharomyces cerevisiae, UniProt P00401+P00410+P00420). Put plainly: Respiratory chain enzymatic activity, complex IV, S. cerevisiae. It counts as biochemical.
The target in data set [3] is respiratory chain complex II (Saccharomyces cerevisiae, UniProt P21801+P33421+P37298+Q00711). Put plainly: Respiratory chain enzymatic activity, complex II, S. cerevisiae. It counts as biochemical.
Data set [4] concerns isolated yeast mitochondria. Put plainly: Mitochondrial oxygen consumption (MitoXpress probe). It counts as biochemical, Saccharomyces cerevisiae. As to the method: S. cerevisiae from frozen stock (−80°C) was inoculated into yeast extract-peptone-glucose (YPD) medium (1% yeast extract, 2% peptone, and 2% glucose) and grown for 24 h at 30°C. The cultured cells were subcultured into yeast extract-peptone-galactose (YPGal) medium (1% yeast extract, 2% peptone, 2% galactose, and 0.1% glucose) and incubated overnight with continuous shaking at 30°C. When the optical density at 600 nm reached approximately 1.0, the cells were collected by centrifugation (3,000 × g at room temperature for 5 min). Intact mitochondria were isolated as per a previously described protocol ([35]) with minor modifications as follows. Yeast cells were converted to spheroplasts by incubation with Zymolyase-20T (Nacalai Tesque, Inc., Kyoto, Japan) (4 mg of Zymolyase-20T/g [wet weight] of cells) and disrupted using a Dounce homogenizer. The crude mitochondrial fraction was isolated by differential centrifugation ([35]). […]. The mitochondrial protein concentration was determined using the DC protein assay (Bio-Rad Laboratories, Inc., Hercules, CA, USA) following the manufacturer’s instructions. The mitochondrial stock solution was maintained on ice during the oxygen consumption experiment.
The mitochondrial oxygen consumption was measured using a phosphorescent oxygen-sensitive probe, MitoXpress-Xtra (Agilent Technologies, Santa Clara, CA, USA), as described previously ([16], [36]). Succinate was used as a respiratory substrate in this assay. […] A microplate reader, PHERAstar Plus (BMG Labtech GmbH, Ortenberg, Germany), was used to read. The time-resolved fluorescence protocol was set to read the plate at 1.5-min intervals for 60 min at an excitation wavelength of 337 nm, an emission wavelength of 665 nm, a delay time of 40 μs, and a gate time of 100 μs at 30°C.
[…]. […] For quantitative assessment, OCR was determined from the slope of the initial 7.5 min. OCR is expressed as micromolar of O2 per minute per milligram of protein.
The drug concentration was expressed as micromoles per milligram of protein. […]

Data set [5] has as its target respiratory chain complex II + III (Bos taurus, UniProt P00125+P00157+P13272). As to the kind of experiment: MitoCheck complex II/III activity assay, bovine heart mitochondria. It counts as biochemical.
The subject of the next data set is C. albicans cells. Particulars: cited from earlier work.
Data set [6] addresses respiratory chain complex II + III (Saccharomyces cerevisiae, UniProt P00163+P07143+P08067). Put plainly: Respiratory chain enzymatic activity, complexes II plus III, S. cerevisiae. It counts as biochemical.
For another data set, the system named is C. albicans. As to conditions: cited from earlier work.
Data set [7] addresses respiratory chain complex I (Candida albicans, UniProt Q9B8D6). As to the kind of experiment: Respiratory chain enzymatic activity, complex I (rotenone-sensitive), C. albicans. It counts as biochemical. Particulars: read-out: IC50 ± SD, Complex I.
The target in data set [8] is respiratory chain complex IV (Candida albicans, UniProt P0C8K9+Q9B1P9+Q9B8D8). Put plainly: Respiratory chain enzymatic activity, complex IV, C. albicans. It counts as biochemical. As to conditions: C. albicans mitochondria; read-out: IC50 ± SD, Complex IV.
In another data set the target is NADH dehydrogenase. Put plainly: NADH dehydrogenase activity, C. albicans. It counts as biochemical, Candida albicans. Particulars: C. albicans mitochondria; involves complex I activity; read-out: IC50 against NADH dehydrogenase activity.

The structures appear in SMILES notation. ≈ marks a conversion by molar mass, not a printed value. Where “and” joins values, the source holds several entries; their conditions need not be identical. Equal values may be shown once.

Sequence of respiratory chain complex II (P21801 21-266): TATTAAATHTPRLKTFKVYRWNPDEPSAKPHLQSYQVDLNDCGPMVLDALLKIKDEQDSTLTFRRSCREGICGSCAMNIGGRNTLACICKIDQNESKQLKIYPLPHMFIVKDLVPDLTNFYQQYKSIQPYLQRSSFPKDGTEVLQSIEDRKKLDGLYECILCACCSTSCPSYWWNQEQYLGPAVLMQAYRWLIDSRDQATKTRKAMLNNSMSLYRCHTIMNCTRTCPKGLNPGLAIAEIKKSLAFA
Sequence of respiratory chain complex II (P33421 51-198): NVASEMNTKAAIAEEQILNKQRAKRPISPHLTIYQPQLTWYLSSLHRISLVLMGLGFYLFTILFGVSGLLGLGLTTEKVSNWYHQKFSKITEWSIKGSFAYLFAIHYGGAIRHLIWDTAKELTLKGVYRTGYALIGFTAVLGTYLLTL
Sequence of respiratory chain complex II (P37298 32-181): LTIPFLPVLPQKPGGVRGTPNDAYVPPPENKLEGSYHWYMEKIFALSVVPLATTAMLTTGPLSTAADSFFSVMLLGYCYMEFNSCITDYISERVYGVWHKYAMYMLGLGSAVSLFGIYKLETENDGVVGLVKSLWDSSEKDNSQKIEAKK
Sequence of respiratory chain complex II (Q00711 29-640): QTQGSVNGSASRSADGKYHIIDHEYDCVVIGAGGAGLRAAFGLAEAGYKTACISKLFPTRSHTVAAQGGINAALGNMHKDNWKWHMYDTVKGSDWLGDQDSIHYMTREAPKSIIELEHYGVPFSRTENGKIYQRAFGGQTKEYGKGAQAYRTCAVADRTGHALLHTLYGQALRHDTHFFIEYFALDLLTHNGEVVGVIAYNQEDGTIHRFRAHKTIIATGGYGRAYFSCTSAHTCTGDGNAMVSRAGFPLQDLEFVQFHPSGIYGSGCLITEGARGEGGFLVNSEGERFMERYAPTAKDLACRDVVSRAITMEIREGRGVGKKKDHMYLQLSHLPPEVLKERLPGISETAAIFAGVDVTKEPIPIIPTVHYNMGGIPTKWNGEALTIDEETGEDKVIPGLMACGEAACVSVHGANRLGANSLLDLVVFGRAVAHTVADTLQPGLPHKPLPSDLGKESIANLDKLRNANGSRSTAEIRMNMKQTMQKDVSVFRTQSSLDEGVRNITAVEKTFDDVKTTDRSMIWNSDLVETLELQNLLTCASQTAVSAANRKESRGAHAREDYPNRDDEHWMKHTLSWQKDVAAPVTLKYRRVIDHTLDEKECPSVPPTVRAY
Sequence of respiratory chain complex IV (Candida albicans, UniProt P0C8K9+Q9B1P9+Q9B8D8) (P0C8K9 whole entry): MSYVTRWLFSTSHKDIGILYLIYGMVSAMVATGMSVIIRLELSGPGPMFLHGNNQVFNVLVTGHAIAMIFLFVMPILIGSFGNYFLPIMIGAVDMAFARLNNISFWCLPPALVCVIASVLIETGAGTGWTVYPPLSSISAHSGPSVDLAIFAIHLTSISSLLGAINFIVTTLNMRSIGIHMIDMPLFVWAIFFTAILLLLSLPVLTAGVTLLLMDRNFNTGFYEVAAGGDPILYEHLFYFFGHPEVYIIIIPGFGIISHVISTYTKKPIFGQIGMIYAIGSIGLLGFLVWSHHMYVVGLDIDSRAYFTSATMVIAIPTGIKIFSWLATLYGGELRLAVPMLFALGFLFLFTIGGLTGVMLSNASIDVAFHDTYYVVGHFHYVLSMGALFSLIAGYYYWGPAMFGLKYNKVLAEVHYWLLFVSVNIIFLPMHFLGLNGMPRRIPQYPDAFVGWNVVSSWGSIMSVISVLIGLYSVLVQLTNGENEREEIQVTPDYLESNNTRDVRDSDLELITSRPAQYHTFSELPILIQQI
Sequence of respiratory chain complex IV (Candida albicans, UniProt P0C8K9+Q9B1P9+Q9B8D8) (Q9B8D8 whole entry): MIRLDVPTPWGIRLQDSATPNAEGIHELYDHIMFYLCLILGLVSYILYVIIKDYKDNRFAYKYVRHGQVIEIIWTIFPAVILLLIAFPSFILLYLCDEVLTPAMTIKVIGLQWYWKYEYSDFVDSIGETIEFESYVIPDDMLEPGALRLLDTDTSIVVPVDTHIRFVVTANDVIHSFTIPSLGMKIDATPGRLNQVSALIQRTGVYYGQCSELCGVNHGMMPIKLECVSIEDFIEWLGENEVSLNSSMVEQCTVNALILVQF
Sequence of respiratory chain complex IV (Candida albicans, UniProt P0C8K9+Q9B1P9+Q9B8D8) (Q9B1P9 whole entry): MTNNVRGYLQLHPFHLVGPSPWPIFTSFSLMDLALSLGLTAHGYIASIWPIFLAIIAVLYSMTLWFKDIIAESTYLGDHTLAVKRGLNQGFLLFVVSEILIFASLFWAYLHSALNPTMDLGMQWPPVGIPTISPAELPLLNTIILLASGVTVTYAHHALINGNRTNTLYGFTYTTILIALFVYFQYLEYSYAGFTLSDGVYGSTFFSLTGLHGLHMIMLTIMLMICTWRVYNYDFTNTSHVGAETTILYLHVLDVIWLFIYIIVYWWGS

With `N=C(N)c1ccc(OCCCC2CCN(CCCOc3ccc(C(=N)N)cc3)CC2)cc1` [T-2307], the figures for the “concentration in cells relative to extracellular medium” value with S. cerevisiae cells and in the data set on C. albicans cells were “approximately 6,000 fold” and > 3,000 fold, respectively. In addition, the “effect on the MMP and on respiration in rat liver mitochondria” value in the data set with rat liver mitochondria was “little effect”. Also, the minimal inhibitory concentration (MIC) (commonly the lowest concentration that inhibits growth of the organism) against Saccharomyces cerevisiae (72 h) was 0.0068 µg/mL and 0.0156 µM. For the same compound, in the data set on Saccharomyces cerevisiae (read-out: growth inhibition), the inhibition (usually the relative decrease from the control value, in per cent) at 0.125 µM is more than 75%. Also, the IC50 (usually the concentration at which inhibition is half-maximal) is more than 3000 µM in data set [1] (bovine heart mitochondria, read-out: IC50 ± SD, Complex I); 149 ± 23 µM in [2]; 755 ± 73 µM in data set [3]; more than 3000 µM in [5] (bovine heart mitochondria, read-out: IC50 ± SD, Complex II + III); 271 ± 37 µM in [6]; 344 ± 32 µM in [7]. For the same compound, the half-inhibitory concentration (IC50) in data set [8] stood at 225 ± 23 µM; at NADH dehydrogenase, 2000 µM. For the same compound, the remaining activity (as a rule, what remains of the control signal, in per cent) at 3000 µM in [1] (bovine, read-out: remaining enzymatic activity of complex I) stood at 68%; in data set [5] (read-out: remaining enzymatic activity of complexes II plus III) it was 93%. Moreover, in data set [4], the “effect on mitochondrial oxygen consumption rate (OCR)” value is “dose-dependent decrease”. In data set [5], the “IC50 for complexes II plus III in bovine heart mitochondria relative to yeast mitochondria” value is on record as more than 10 fold. In addition, the MIC reported previously with C. albicans is 4 nM (≈ 1.75 ng/mL).

The values are drawn from PMC6658782, “The Novel Arylamidine T-2307 Selectively Disrupts Yeast Mitochondrial Function by Inhibiting Respiratory Chain Complexes” (Antimicrobial Agents and Chemotherapy, 2019).
